# Counter-ions that a name gives are not always drawn. Like-named read-outs stand apart in the source and are kept apart here.
# Tests used:
# [1] = system: P. hemolytica strain 41 D; assay: In vitro MIC and checkerboard titration of the combination; format: cell-based, Pasturella hemolytica; conditions: antibiotic alone
# Description: This organism can cause pneumonia in cattle which in cases of severe infection can lead to death. […] The synergistic activity of the combination of the two antibiotics was determined by the "checkerboard" titration method. In this method two antibiotics are tested in serial dilutions and in all combinations of these dilutions together to find the concentrations of each antibiotic, both alone and in combination, that inhibit growth of the test microorganism. The nature of the interaction between the two antibiotics may be determined algebraically or geometrically. In the algebraic method, the concentration of each antibiotic in the combination that inhibits growth is expressed as a fraction of the concentration that produces the same effect when the antibiotic is used alone. When the sum of these fractions is one, the combination is additive, when the sum is less than one, the combination is synergistic; and when the sum is greater than one, the combination is antagonistic.
# Below are shown the calculations using data obtained in the in vitro test of tylosin, apramycin and the combination of the two antibiotics against P. hemolytica.
# [2] = 28 day weight gain and feed utilization trial in post weaned pigs; format: in vivo; conditions: 28 days; for Daily feed intake (Rel) / Daily gain (Rel) / Feed efficiency (Rel) / Final weight (Rel): comparison to negative controls (100), 100 ppm in feed; for Daily feed intake x̄ (kg) per animal / Daily gain x̄ (g) per animal / Feed efficiency x̄ (kg feed/kg gain) / Final weight x̄ (kg) per animal: post weaned pigs, 100 ppm in feed (combination 100 ppm of each); for Final weight x̄ (kg) per animal: mean of two like trials
# Description: The trials were carried out in pens with 6 pigs per pen for 28 days. The pigs were of mixed sex having an average initial body weight of 12.89 kg and an average age of six weeks. The animals received water before and after feeding. The animals were fed twice daily with feed having the following composition.
# The tylosin-apramycin combination was compared in the trials with tylosin alone and with apramycin alone. The antibiotics and the combination thereof were administered in the animal feed at a level of 100 ppm, and, in the case of the combination; at 100 ppm for each antibiotic.
# [3] = system: E. coli; assay: 21 day trial in weanling pigs: treatment and control of colibacillosis, weight gain, feed efficiency, diarrhoea; format: in vivo; conditions: for Diarrhoea index: score 1 (formed stools only) to 5 (liquid stools only), scored twice daily for 13 days and once on the 14th day, 110 ppm in feed; for Percent increase over controls: Reduction of diarrhoea / Percent increase over controls: Average daily weight gain / Percent increase over controls: Improved feed efficiency / Average daily feed / Average daily gain / Feed efficiency: weanling pigs, 21 days; for Percent increase over controls: Reduction of diarrhoea: difference in incidence as percentage of the control incidence; for Percent increase over controls: Average daily weight gain / Percent increase over controls: Improved feed efficiency: vs non-treated control group; for Average daily feed / Average daily gain / Feed efficiency: tylosin phosphate and apramycin sulfate at 110 ppm in feed, combination 110 ppm of each
# From the text: Tylosin and apramycin were each administered in the feed at a level of 110 ppm. The antibiotic combination was likewise administered in the feed containing both antibiotics at the 110 ppm level. The results are shown as a percentage increase over a non-treated control group as calculated from the statistical evaluation of the data obtained in the study.
# The efficacy of the tylosin-apramycin combination in the treatment and control of colibacillosis is shown by the results obtained in a 21 day trial with weanling pigs. The pigs were divided by weight into treatment and control groups of eight pigs. Each treatment was randomly assigned to three groups. The animals were fed a normal ration ad libitum with the treatment groups receiving feed containing 110 ppm of each antibiotic. Weight gains, feed efficiency and the incidence of diarrhoea were used to measure the response to treatment.
# Ninety-six weanling pigs averaging 6.0 kg in weight were randomly allocated by weight into 12 pens of 8 pigs per pen. Four treatments were used in the study as follows: 1) Non-medicated controls; 2) apramycin fed at 110 ppm; 3) tylosin phosphate fed at 110 ppm; and 4) apramycin sulfate and tylosin phosphate both fed at 110 ppm. Each treatment was replicated through three pens.
# The pigs were fed for 21 days ad libitum a ration of 20% protein corn-soy meal with some rolled oats included for roughage. Vitamins and minerals were added as needed to balance the ration. The only difference in the rations fed to all pigs was the inclusion of the appropriate antibiotic or antibiotic combination in each of the medicated rations. All feed was weighed as fed, with the feed remaining at the end of the weigh period, weighed and discarded. The pigs were weighed at the initiation of the study and weekly thereafter.
# Diarrhoea scores were maintained on a pen basis. The scoring was done by the same person on a twice daily schedule for the first 13 days and once only on the 14th day. The scoring index was the same as that shown in footnote 2 of Table 5.
# [4] = system: M. Hyorhinis HH; assay: Minimal inhibitory concentration vs mycoplasma in contaminated LLC-MK2 tissue culture; format: cell-based, Mycoplasma hyorhinis; conditions: for MIC: Mesomycoplasma hyorhinis
# Description: (§1) Suspensions of monkey kidney cells, LLC-MK2, in medium 199 (Morgan et al., Proc. Soc. Exp. Biol. Med, 73, 1 1950), were inoculated with cultures of the indicated mycoplasma to achieve an inoculum concentration of 1.5xlO' organisms/ml of cell suspension. Control cultures and the mycoplasma positive cultures included in each test were incubated at 37°C for 3-5 days. After incubation the medium in all cultures was changed to 1% horse serum in Medium 199 containing 1.68 g of sodium bicarbonates per liter. The tissue cultures innoculated with mycoplasma (except for mycoplasma positive control cultures) were then treated with the indicated individual antibiotics alone or with the combination of antibiotics shown in Table 1. When combinations of antibiotics were tested equal amounts of the antibiotics were used.
# (§2) Solutions of the antibiotics were made up in Medium 199 containing 1.68 g of sodium bicarbonate per liter of medium. The solutions were sterile filtered through a millipore filter having a 0.2 µm porosity and were stored at 4°C prior to use. Two fold dilutions of the antibiotic solutions were made and each antibiotic solution was added to separate cultures to determine the minimal inhibitory concentration. The medium in each culture was changed twice a week with fresh antibiotic solution at the same concentration being added at each medium change. After two weeks, medium changes were made without antibiotic for two more weeks. Samples of the cultures were taken before each medium change in the last two weeks and were cultured to determine the presence of mycoplasma.
# Cell suspensions of LLC-MK2 (Monkey kidney cell line) in Medium 199 containing 1% house serum of 4 ml volumes in tissue culture flasks were inoculated with a 3 day old culture of Mycoplasma hyorhinis (5 x 10^8 organism per ml in Eaton's broth). Approximately 2 to 3% of the mycoplasma culture per volume of the cell suspension was used. After inoculation the cell suspensions were incubated at a temperature of 37°C for from three to five days. Control cultures were also made up in the same manner. After incubation the medium in the control cultures and the mycoplasma positive cultures was replaced with fresh Medium 199 containing 1.68 g of sodium bicarbonate and 1% horse serum. The cultures were then treated with solutions of tylosin, tobramycin, and with the combination of tylosin and tobramycin in Medium 199 containing 1.68 g of sodium bicarbonate per liter. Solutions of each individual antibiotic and of the combination at a concentration of 1000 µg/ml were prepared. […] By two-fold serial dilution solutions at various concentrations down to 0.39 µg/ml were prepared. Each of the antibiotic solutions was added to a separate flask containing the tissue culture.
# The tissue culture medium was replaced in each flask twice a week and at each medium change for two weeks a fresh solution of the antibiotic at the same concentration was added. After two weeks fresh medium replacements were made for two more weeks without the addition of antibiotic. Samples of each culture were taken before each medium replacement and were cultured to determine the presence of mycoplasma.
# [5] = system: M. Hyorhinis; assay: as above; format: cell-based; conditions: LLC-MK2 tissue culture contaminated with M. Hyorhinis, combinations contain equal amounts of each antibiotic
# Description: as §1, §2
# Cell suspensions of LLC-MK2 (Monkey kidney cell line) in Medium 199 containing 1% house serum of 4 ml volumes in tissue culture flasks were inoculated with a 3 day old culture of Mycoplasma hyorhinis (5 x 10^8 organism per ml in Eaton's broth). Approximately 2 to 3% of the mycoplasma culture per volume of the cell suspension was used. After inoculation the cell suspensions were incubated at a temperature of 37°C for from three to five days. Control cultures were also made up in the same manner. […]
# [6] = system: M. gallisepticum 36 F; assay: as above; format: cell-based; conditions: LLC-MK2 tissue culture contaminated with M. gallisepticum 36 F (chicken mycoplasma), combinations contain equal amounts of each antibiotic
# Description: as §1, §2
# [7] = system: Swine L3F12F7; assay: as above; format: cell-based; conditions: Mycoplasmopsis arginini; LLC-MK2 tissue culture contaminated with Swine L3F12F7 (mycoplasma isolated from swine); combinations contain equal amounts of each antibiotic
# Description: as §1, §2
# [8] = system: M. gallisepticum 41313; assay: as above; format: cell-based; conditions: Mycoplasmoides gallisepticum; LLC-MK2 tissue culture contaminated with M. gallisepticum 41313 (chicken mycoplasma); combinations contain equal amounts of each antibiotic
# Description: as §1, §2
# [9] = system: M. Hyorhinis HEK; assay: as above; format: cell-based; conditions: Mesomycoplasma hyorhinis; LLC-MK2 tissue culture contaminated with M. Hyorhinis HEK (isolate from human embryonic kidney tissue); combinations contain equal amounts of each antibiotic
# Description: as §1, §2
# [10] = 110 ppm of each antibiotic in feed
# [11] = LLC-MK2 tissue culture contaminated with M. Hyorhinis HH (isolate from human heart tissue), combinations contain equal amounts of each antibiotic, read-out: Minimal inhibitory concentration
# [12] = LLC-MK2 tissue culture contaminated with M. Hyorhinis HH (isolate from human heart tissue), combinations contain equal amounts of each antibiotic
molecule,measurement,setting,value
CN[C@@H]1[C@@H](O[C@H]2O[C@H](CO)[C@@H](N)[C@H](O)[C@H]2O)OC2C[C@@H](N)[C@@H](O[C@H]3[C@H](O)[C@@H](O)[C@H](N)C[C@@H]3N)OC2[C@@H]1O (stereo partly drawn) [Apramycin],MIC,[1],25 µg/mL
same,Daily feed intake (Rel),[2],(100) percentage
same,Daily gain (Rel),[2],(110) percentage
same,Feed efficiency (Rel),[2],(92) percentage
same,Final weight (Rel),[2],(102) percentage
same,Daily feed intake x̄ (kg) per animal,[2],"0,92 kg"
same,Daily gain x̄ (g) per animal,[2],467 g
same,Feed efficiency x̄ (kg feed/kg gain),[2],"1,96 kg feed/kg gain"
same,Final weight x̄ (kg) per animal,[2],"25,62 kg"
same,Diarrhoea index,[3],1.64
same,Percent increase over controls: Reduction of diarrhoea,[3]; [10],42.8%
same,Percent increase over controls: Average daily weight gain,[3]; [10],19.0%
same,Percent increase over controls: Improved feed efficiency,[3]; [10],10.3%
same,Average daily feed,[3],0.47 kg
same,Average daily gain,[3],0.29 kg
same,Feed efficiency,[3],1.64
same,MIC,[4]; [11],600 µg/mL
CO[C@@H]1[C@@H](O[C@@H]2O[C@H](C)[C@@H](O[C@H]3C[C@@](C)(O)[C@@H](OC(=O)CC(C)C)[C@H](C)O3)[C@H](N(C)C)[C@H]2O)[C@@H](CC=O)C[C@@H](C)[C@@H](O)/C=C/C=C/C[C@@H](C)OC(=O)C[C@H]1O [Leucomycin],Minimal inhibitory concentration,[4]; [12],>400 µg/mL
same,MIC,[4]; [11],400 µg/mL
NC[C@H]1O[C@H](O[C@H]2[C@H](O)[C@@H](O[C@H]3O[C@H](CO)[C@@H](O)[C@H](N)[C@H]3O)[C@H](N)C[C@@H]2N)[C@H](N)[C@@H](O)[C@@H]1O [Nebramycin Factor 5],Minimal inhibitory concentration,[4]; [12],200 µg/mL
CO[C@H]1C[C@H](O[C@H]2[C@H](C)[C@@H](O[C@@H]3O[C@H](C)C[C@H](N(C)C)[C@H]3O)[C@@H](C)C[C@@]3(CO3)C(=O)[C@H](C)[C@@H](O)[C@@H](C)[C@@H](C)OC(=O)[C@@H]2C)O[C@@H](C)[C@@H]1O [Oleandomycin],MIC,[4]; [11],400 µg/mL
NCC1OC(OC2C(N)CC(N)C(OC3OC(CO)C(O)C(N)C3O)C2O)C(N)CC1O (stereo not drawn) [Tobramycin sulfate],MIC,[4]; [11],200 µg/mL
NC[C@H]1O[C@H](O[C@H]2[C@H](O)[C@@H](O[C@H]3O[C@H](CO)[C@@H](O)[C@H](N)[C@H]3O)[C@H](N)C[C@@H]2N)[C@H](N)C[C@@H]1O [Tobramycin],MIC,[5]; Mesomycoplasma hyorhinis,100 µg/mL
same,MIC,[6]; Mycoplasmoides gallisepticum,100 µg/mL
same,MIC,[7],50 µg/mL
same,MIC,[8],200 µg/mL
same,MIC,[9],> 500 µg/mL
same,MIC,"[4]; Example 4, procedure of Example 1, LLC-MK2 tissue culture, read-out: MIC",200 µg/mL
CC[C@H]1OC(=O)C[C@@H](O)[C@H](C)[C@@H](O[C@@H]2O[C@H](C)[C@@H](O[C@H]3C[C@@](C)(O)[C@@H](O)[C@H](C)O3)[C@H](N(C)C)[C@H]2O)[C@@H](CC=O)C[C@@H](C)C(=O)/C=C/C(C)=C/[C@@H]1CO[C@@H]1O[C@H](C)[C@@H](O)[C@@H](OC)[C@H]1OC [Tylosin],MIC,[1],50 µg/mL
same,Daily feed intake (Rel),[2],(100) percentage
same,Daily gain (Rel),[2],(106) percentage
same,Feed efficiency (Rel),[2],(97) percentage
same,Final weight (Rel),[2],(102) percentage
same,Daily feed intake x̄ (kg) per animal,[2],"0,92 kg"
same,Daily gain x̄ (g) per animal,[2],449 g
same,Feed efficiency x̄ (kg feed/kg gain),[2],"2,07 kg feed/kg gain"
same,Final weight x̄ (kg) per animal,[2],"25,58 kg"
same,mean diarrhoea scores vs time in days (incidence of diarrhoea),"[3]; plot in the accompanying drawing, 110 ppm of each antibiotic in feed",some effectiveness
same,Diarrhoea index,[3],2.10
same,Percent increase over controls: Reduction of diarrhoea,[3]; [10],26.4%
same,Percent increase over controls: Average daily weight gain,[3]; [10],29.7%
same,Percent increase over controls: Improved feed efficiency,[3]; [10],11.4%
same,Average daily feed,[3],0.51 kg
same,Average daily gain,[3],0.31 kg
same,Feed efficiency,[3],1.62
same,MIC,[7],200 µg/mL
same,MIC,[9],> 200 µg/mL
same,Minimal inhibitory concentration,[4]; [12],200 µg/mL
Gentamicin,Minimal inhibitory concentration,[5],100 µg/mL
Magnamycin,Minimal inhibitory concentration,[4]; [12],>800 µg/mL
Neomycin,Minimal inhibitory concentration,[5],100 µg/mL
Spiromycin,Minimal inhibitory concentration,[4]; [12],>800 µg/mL
Tylosin tartrate,Minimal inhibitory concentration,[6],>800 µg/mL
same,Minimal inhibitory concentration,[4]; [12],200 µg/mL

# Source: EP0032304B1, “Antibiotic compositions” (ELI LILLY AND COMPANY, priority 1979, dated 1981)
